From ChEMBL document CHEMBL1201862, “PubChem BioAssay data set” (2004)
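Where inhibition never reached the appropriate level, the endpoint shown equals the highest concentration tested. Otherwise, values were interpolated linearly from a five-concentration, 48-hour dose response in 96-well plates. GI50 marks 50% less growth.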 The source made the active and inactive calls. Cut-off read from the data, not from the text of the source: active = GI50 up to about 1.1 µM and inactive = higher.

Experiments:
Experiment in all cases: NCI-60 cell line screen, 48 h
MDA-MB-231 = test system: MDA-MB-231
CCRF-CEM = test system: CCRF-CEM
HCC 2998 = test system: HCC 2998
MCF7 = test system: MCF7
NCI-H23 = test system: NCI-H23
RPMI-8226 = test system: RPMI-8226
SW-620 = test system: SW-620
SF-539 = test system: SF-539
SF-295 = test system: SF-295
SK-MEL-28 = test system: SK-MEL-28
SN12C = test system: SN12C
OVCAR-3 = test system: OVCAR-3
EKVX = test system: EKVX
HCT-116 = test system: HCT-116
ACHN = test system: ACHN
PC-3 = test system: PC-3
MDA-N = test system: MDA-N
SNB-19 = test system: SNB-19
BT-549 = test system: BT-549
HOP-92 = test system: HOP-92
KM12 = test system: KM12
HCT-15 = test system: HCT-15
MOLT-4 = test system: MOLT-4
786-0 = test system: 786-0
SK-MEL-5 = test system: SK-MEL-5
U-251 = test system: U-251
M14 = test system: M14
SK-OV-3 = test system: SK-OV-3
T47D = test system: T47D
HOP-62 = test system: HOP-62
RXF 393 = test system: RXF 393
A549 = test system: A549
HL-60 = test system: HL-60
K562 = test system: K562
IGROV-1 = test system: IGROV-1
CAKI-1 = test system: CAKI-1
OVCAR-8 = test system: OVCAR-8
SK-MEL-2 = test system: SK-MEL-2
Malme-3M = test system: Malme-3M
MDA-MB-435 = test system: MDA-MB-435
UACC-62 = test system: UACC-62
HT-29 = test system: HT-29
NCI/ADR-RES = test system: NCI/ADR-RES
SF-268 = test system: SF-268
NCI-H460 = test system: NCI-H460
NCI-H226 = test system: NCI-H226
LOX IMVI = test system: LOX IMVI
NCI-H522 = test system: NCI-H522
COLO 205 = test system: COLO 205
DU-145 = test system: DU-145
Hs-578T = test system: Hs-578T
UACC-257 = test system: UACC-257
OVCAR-5 = test system: OVCAR-5
UO-31 = test system: UO-31
TK-10 = test system: TK-10
OVCAR-4 = test system: OVCAR-4
SNB-75 = test system: SNB-75
SR = test system: SR
A498 = test system: A498

In the case of O=C1NNC(=O)c2ccccc2SSc2ccccc2C(=O)NNC(=O)c2ccccc2SSc2ccccc21, the GI50 (MDA-MB-231) is reported as 32.4 µM (inactive), the GI50 (CCRF-CEM) is reported as 1.26 µM (inactive) and the GI50 (HCC 2998) is reported as > 100 µM (inactive). The GI50 (MCF7) was 6.05 µM (inactive), the GI50 (NCI-H23) was 9.33 µM (inactive) and the GI50 (RPMI-8226) was 34 µM (inactive). For the same compound, the GI50 (SW-620) was 8.59 µM (inactive), the GI50 (SF-539) was 17.3 µM (inactive) and the GI50 (SF-295) was 2.45 µM (inactive). For the same compound, the GI50 (SK-MEL-28) was 45.5 µM (inactive), the GI50 (SN12C) was 12.9 µM (inactive) and the GI50 (OVCAR-3) was 16.9 µM (inactive). For the same compound, the GI50 (EKVX) was 18.1 µM (inactive), the GI50 (HCT-116) was 7.76 µM (inactive) and the GI50 (ACHN) was 14 µM (inactive). For the same compound, the GI50 (PC-3) was 19.5 µM (inactive), the GI50 (MDA-N) was 32 µM (inactive) and the GI50 (SNB-19) was 25.9 µM (inactive). For the same compound, the GI50 (BT-549) was 11.5 µM (inactive), the GI50 (HOP-92) was > 50 µM (inactive) and the GI50 (KM12) was 22.5 µM (inactive). For the same compound, the GI50 (HCT-15) was 8.99 µM, the GI50 (MOLT-4) was 2.94 µM (inactive) and the GI50 (786-0) was 13.5 µM (inactive). For the same compound, the GI50 (SK-MEL-5) was 26.9 µM (inactive), the GI50 (U-251) was 17.3 µM (inactive) and the GI50 (M14) was 24.4 µM (inactive). The GI50 (SK-OV-3) was 23.3 µM (inactive), the GI50 (T47D) was 28.8 µM (inactive) and the GI50 (HOP-62) was 21.4 µM (inactive). For the same compound, the GI50 (RXF 393) was > 50 µM (inactive), the GI50 (A549) was 19.5 µM (inactive) and the GI50 (HL-60) was 6.7 µM (inactive). For the same compound, the GI50 (K562) was 12.9 µM (inactive), the GI50 (IGROV-1) was 9.25 µM (inactive) and the GI50 (CAKI-1) was 13.2 µM (inactive). The GI50 (OVCAR-8) was 12.5 µM (inactive), the GI50 (SK-MEL-2) was 26.8 µM (inactive) and the GI50 (Malme-3M) was 15.6 µM (inactive). The GI50 (MDA-MB-435) was 39 µM (inactive), the GI50 (UACC-62) was 16.7 µM (inactive) and the GI50 (HT-29) was 16.7 µM (inactive). The GI50 (NCI/ADR-RES) was 17.8 µM (inactive), the GI50 (SF-268) was 5.31 µM (inactive) and the GI50 (NCI-H460) was 5.97 µM (inactive). The GI50 (NCI-H226) was > 50 µM (inactive), the GI50 (LOX IMVI) was 12 µM (inactive) and the GI50 (NCI-H522) was 35.5 µM (inactive). The GI50 (COLO 205) was 17.2 µM (inactive), the GI50 (DU-145) was 21.4 µM (inactive) and the GI50 (Hs-578T) was > 50 µM (inactive). The GI50 (UACC-257) was 19.9 µM (inactive), the GI50 (OVCAR-5) was 16.9 µM (inactive) and the GI50 (UO-31) was 3.39 µM (inactive). For the same compound, the GI50 (TK-10) was 36.9 µM (inactive), the GI50 (OVCAR-4) was 33.7 µM (inactive) and the GI50 (SNB-75) was 40.1 µM (inactive). The GI50 (SR) was 2.55 µM (inactive).
For C=CCC1(OCc2ccccc2)C(=O)C(=O)OC1C1COC(C)(C)O1 (stereo not given), the GI50 (MDA-MB-231) was > 100 µM (inactive), the GI50 (CCRF-CEM) was > 100 µM (inactive) and the GI50 (HCC 2998) was > 100 µM (inactive). The GI50 (MCF7) was > 100 µM (inactive), the GI50 (NCI-H23) was > 100 µM (inactive) and the GI50 (RPMI-8226) was > 100 µM (inactive). The GI50 (SW-620) was > 100 µM (inactive), the GI50 (SF-539) was > 100 µM (inactive) and the GI50 (SF-295) was > 100 µM (inactive). The GI50 (SK-MEL-28) was > 100 µM (inactive), the GI50 (SN12C) was > 100 µM (inactive) and the GI50 (OVCAR-3) was > 100 µM (inactive). For the same compound, the GI50 (A498) was > 100 µM (inactive), the GI50 (EKVX) was > 100 µM (inactive) and the GI50 (HCT-116) was > 100 µM (inactive). The GI50 (ACHN) was > 100 µM (inactive), the GI50 (PC-3) was > 100 µM (inactive) and the GI50 (MDA-N) was > 100 µM (inactive). For the same compound, the GI50 (SNB-19) was > 100 µM (inactive), the GI50 (BT-549) was > 100 µM (inactive) and the GI50 (KM12) was > 100 µM (inactive). The GI50 (HCT-15) was greater than 100 µM, the GI50 (MOLT-4) was > 100 µM (inactive) and the GI50 (786-0) was > 100 µM (inactive). The GI50 (SK-MEL-5) was > 100 µM (inactive), the GI50 (U-251) was > 100 µM (inactive) and the GI50 (M14) was > 100 µM (inactive). The GI50 (SK-OV-3) was > 100 µM (inactive), the GI50 (T47D) was > 100 µM (inactive) and the GI50 (HOP-62) was > 100 µM (inactive). For the same compound, the GI50 (RXF 393) was > 100 µM (inactive), the GI50 (A549) was > 100 µM (inactive) and the GI50 (HL-60) was > 100 µM (inactive). For the same compound, the GI50 (K562) was > 100 µM (inactive), the GI50 (CAKI-1) was > 100 µM (inactive) and the GI50 (OVCAR-8) was > 100 µM (inactive). For the same compound, the GI50 (SK-MEL-2) was > 100 µM (inactive), the GI50 (Malme-3M) was > 100 µM (inactive) and the GI50 (MDA-MB-435) was > 100 µM (inactive). The GI50 (UACC-62) was > 100 µM (inactive), the GI50 (HT-29) was > 100 µM (inactive) and the GI50 (NCI/ADR-RES) was > 100 µM (inactive). For the same compound, the GI50 (SF-268) was > 100 µM (inactive), the GI50 (NCI-H460) was > 100 µM (inactive) and the GI50 (NCI-H226) was > 100 µM (inactive). For the same compound, the GI50 (LOX IMVI) was > 100 µM (inactive), the GI50 (NCI-H522) was > 100 µM (inactive) and the GI50 (COLO 205) was > 100 µM (inactive). For the same compound, the GI50 (DU-145) was > 100 µM (inactive), the GI50 (Hs-578T) was > 100 µM (inactive) and the GI50 (UACC-257) was > 100 µM (inactive). For the same compound, the GI50 (OVCAR-5) was > 100 µM (inactive), the GI50 (UO-31) was > 100 µM (inactive) and the GI50 (TK-10) was > 100 µM (inactive). For the same compound, the GI50 (OVCAR-4) was > 100 µM (inactive), the GI50 (SNB-75) was > 100 µM (inactive) and the GI50 (SR) was > 100 µM (inactive).
